# Laboratory results as given in patent US20250241996A1, “COMBINATORIAL, AND ROTATIONAL COMBINATORIAL THERAPIES” (Starrock Pharma Inc., priority 2022, published 2025).
# Where “and” joins values, the source holds several entries; their conditions need not be identical. Equal values may be shown once. Read-outs that look alike come from different tables or passages of the source.
# Legend:
# [1] = Side effects and tolerability during the combinatorial weight loss regimen (Example 2)
# Protocol: Subjects were seen once weekly for the first 4 weeks, and then once every two weeks, for six visits, for a total of 10 visits over 16 weeks. Vital signs and side effects were assessed at each visit.
# Subjects were administered or self-administered the medications in the protocol by the appropriate route (i.e., subcutaneous injection or oral tablet/capsule) for […]. Subjects initially were administered a combination of: 1) a GLP-1 agonist (sold under trademarks Trulicity®, B-cise®, Ozempic®, and Victoza®), 2) Phentermine, 3) Liothyronine, 4) topiramate (sold under the trademark Topamax® carbonic anhydrase inhibitor), and 5) Sermorelin. The starting dosages are listed below in Table 17. The dosages were adjusted throughout the treatment period based on the subject response (i.e., weight loss), tolerability, volume of distribution, subject weight, and at the discretion of the treating physician. For example, the dosage of the GLP-1 agonists Trulicity® and Ozempic® was adjusted depending on the response to the medications. The dosage of the Bydureon BCcise® GLP-1 agonist was not adjusted since it is only produced in a 2 mg injectable dose. Phentermine was increased depending on subject response, to, for example, one 37.5 mg tablet in the morning and one-half tablet ([…]) at 2 p.m. […] If no progression was noted on the initial medications listed above, then the following medications were added to the protocol: Acarbose, Januvia® dipeptidyl peptidase-4 (DPP-4) inhibitor, Invokana® sodium-glucose co-transporter 2 (SGLT2) inhibitor, and Farxiga® (dapagliflozin) in the dosages listed in Table 17, below. For example, if weight loss progress was slow and a subject was consuming large amounts of carbohydrate-rich foods, the alpha-glucosidase inhibitor, Acarbose, was added to the regimen. […] This was added in addition to medications i-iv and ix, below. The regimen provided a minimum of four medications, and more medications were added and/or the dosages were modified as required in subsequent visits.
# In other examples, the regimen began with administration of medications i-iv and ix and other medications were added; additional medications were administered at week 2 or week 7, for example, if the subject was not responding and needed an extra pharmacological ‘push.’
# As noted above, the medication dosages were adjusted throughout the treatment period as needed, and as agreed to between the treating physician and the subject. […] For larger subjects (i.e., starting weight over 300 pounds) who were losing less than 6 pounds per week, medication dosages were increased or additional medications were added to the regimen. The hierarchy of decision making included 1) increase the dosage of the medications to the maximum allowable dosage or to the level of tolerability of the medication; and then 2) add a fifth or sixth medication, as needed to increase weight loss.
# [2] = cited from earlier work
# [3] = cited from earlier work; remark: listed apart in the source
# [4] = cited from earlier work; remark: listed apart in the source
# [5] = cited from earlier work; remark: listed apart in the source
# [6] = after 36 weeks, cited from earlier work
molecule,measurement,setting,value
C[C@H]1O[C@H](O[C@H]2[C@H](O)[C@@H](O)[C@@H](O[C@H]3[C@H](O)[C@@H](O)C(O)O[C@@H]3CO)O[C@@H]2CO)[C@H](O)[C@@H](O)[C@@H]1N[C@H]1C=C(CO)[C@@H](O)[C@H](O)[C@H]1O (some centres unmarked) [Acarbose],Side effect(s),"[1]; subject 4, dosages of Table 24",Mild
"Fc1ccccc1Nc1nc2nonc2nc1Nc1ccccc1F [BAM15, (2-fluorophenyl){6-[(2-fluorophenyl)amino](1,2,5-oxadiazolo [3,4e]pyrazin-5-yl)}amine]",diet-induced obesity and insulin resistance,"[2]; orally administered, mice",reverses diet-induced obesity and insulin resistance in mice
CC(NC(C)(C)C)C(=O)c1cccc(Cl)c1 (centres unmarked) [Bupropion],Side effect(s),[1]; in vivo,None
"O=[N+]([O-])c1ccc(O)c([N+](=O)[O-])c1 [DNP, 2,4-dinitrophenol]",toxicity,[3]; tested clinically,limited utility owing to toxicity
CCN(CC)C(C)C(=O)c1ccccc1 (centres unmarked) [Diethylproprion],Side effect(s),"[1]; subject 2, dosages of Table 20",None
C[C@H]1CNCCc2ccc(Cl)cc21 [Locasarin],Weight loss,[4]; Duration 56 weeks,5.8%
O=C1CC[C@@]2(O)[C@H]3Cc4ccc(O)c5c4[C@@]2(CCN3CC2CC2)[C@H]1O5 [Naltrexone],weight loss in monotherapy,"[3]; human, in vivo",does not cause weight loss in monotherapy
CCCCCCCCCCC[C@@H](C[C@@H]1OC(=O)[C@H]1CCCCCC)OC(=O)[C@H](CC(C)C)NC=O [Orlistat],placebo-normalized weight loss,"[3]; human, in vivo",~2.5%
same,>%5 (percent of subjects who lost greater than 5%),[4]; Duration 56 weeks,48%
same,>%10 (percent of subjects who lost greater than 10%),[4]; Duration 56 weeks,17.9%
same,Weight loss,[4]; Duration 56 weeks,6.2% and 4% and 8.5%
same,participants with 5% and more weight loss,[4]; Duration 56 weeks,48%
same,participants with 10% and more weight loss,[4]; Duration 56 weeks,17.9%
C[C@H]1[C@H](c2ccccc2)OCCN1C [Phendimetrazine],Side effect(s),"[1]; subject 5, dosages of Table 26",None
CC(C)(N)Cc1ccccc1 [Phentermine],Side effect(s),"[1]; subject 1, dosages of Table 18",Dry mouth
same,Side effect(s),"[1]; subject 2, dosages of Table 20",Dry mouth
same,Side effect(s),"[1]; subject 3, dosages of Table 22",None and Dry mouth
same,Side effect(s),"[1]; subject 4, dosages of Table 24",None
same,Side effect(s),"[1]; subject 5, dosages of Table 26",None
same,>%5 (percent of subjects who lost greater than 5%),[4]; Duration 12 weeks,95%
same,>%10 (percent of subjects who lost greater than 10%),[4]; Duration 12 weeks,62.5%
same,Weight loss,[4]; Duration 12 weeks,8% and 7%
same,participants with 5% and more weight loss,[4]; Duration 12 weeks,95%
same,participants with 10% and more weight loss,[4]; Duration 12 weeks,62.5%
same,Weight loss,"[4]; Duration 12 weeks, listed as phentermine",8% and 7%
same,Weight loss,[4]; Duration 20 weeks,9%
same,Weight loss,[4]; Duration 28 weeks,6%
Cc1c(C(=O)NN2CCCCC2)nn(-c2ccc(Cl)cc2Cl)c1-c1ccc(Cl)cc1 [Rimonabant],adverse psychiatric effects,"[3]; human, in vivo",discontinued in 2009 due to serious adverse psychiatric effects
same,placebo-subtracted weight loss,"[3]; human, in vivo",2.6 to 6.3 kg
CCOC[C@@H]1[C@@H](c2ccc(Cl)c(Cl)c2)C[C@@H]2CC[C@H]1N2C [Tesofensine],decrease of body weight,"[3]; phase II study, dose-dependent",4.4-10.4%
CC1(C)O[C@@H]2[C@@H](CO[C@@]3(COS(N)(=O)=O)OC(C)(C)O[C@@H]23)O1 [Topiramate],tolerability within the regimen,[1]; in vivo,"the least tolerated, and was discontinued in some cases"
CC[C@H](C)[C@H](NC(=O)[C@H](Cc1ccccc1)NC(=O)[C@H](CCC(=O)O)NC(=O)[C@H](CCCCNC(=O)COCCOCCNC(=O)COCCOCCNC(=O)CC[C@H](NC(=O)CCCCCCCCCCCCCCCCC(=O)O)C(=O)O)NC(=O)[C@H](C)NC(=O)[C@H](C)NC(=O)[C@H](CCC(N)=O)NC(=O)CNC(=O)[C@H](CCC(=O)O)NC(=O)[C@H](CC(C)C)NC(=O)[C@H](Cc1ccc(O)cc1)NC(=O)[C@H](CO)NC(=O)[C@H](CO)NC(=O)[C@@H](NC(=O)[C@H](CC(=O)O)NC(=O)[C@H](CO)NC(=O)[C@@H](NC(=O)[C@H](Cc1ccccc1)NC(=O)[C@@H](NC(=O)CNC(=O)[C@H](CCC(=O)O)NC(=O)C(C)(C)NC(=O)[C@@H](N)Cc1cnc[nH]1)[C@@H](C)O)[C@@H](C)O)C(C)C)C(=O)N[C@@H](C)C(=O)N[C@@H](Cc1c[nH]c2ccccc12)C(=O)N[C@@H](CC(C)C)C(=O)N[C@H](C(=O)N[C@@H](CCCNC(=N)N)C(=O)NCC(=O)N[C@@H](CCCNC(=N)N)C(=O)NCC(=O)O)C(C)C [semaglutide],Side effect(s),[1]; in vivo,constipation
CC[C@H](C)[C@H](NC(=O)[C@H](C)NC(=O)[C@H](CC(=O)O)NC(=O)[C@H](C)NC(=O)[C@@H](N)Cc1ccc(O)cc1)C(=O)N[C@@H](Cc1ccccc1)C(=O)N[C@H](C(=O)N[C@@H](CC(N)=O)C(=O)N[C@@H](CO)C(=O)N[C@@H](Cc1ccc(O)cc1)C(=O)N[C@@H](CCCNC(=N)N)C(=O)N[C@@H](CCCCN)C(=O)N[C@H](C(=O)N[C@@H](CC(C)C)C(=O)NCC(=O)N[C@@H](CCC(N)=O)C(=O)N[C@@H](CC(C)C)C(=O)N[C@@H](CO)C(=O)N[C@@H](C)C(=O)N[C@@H](CCCNC(=N)N)C(=O)N[C@@H](CCCCN)C(=O)N[C@@H](CC(C)C)C(=O)N[C@@H](CC(C)C)C(=O)N[C@@H](CCC(N)=O)C(=O)N[C@@H](CC(=O)O)C(=O)N[C@H](C(=O)N[C@@H](CCSC)C(=O)N[C@@H](CO)C(=O)N[C@@H](CCCNC(=N)N)C(N)=O)[C@@H](C)CC)C(C)C)[C@@H](C)O [sermorelin],Side effect(s),[1]; in vivo,None
Novo Nordisk Wegovy ™ semaglutide weight loss medication,12 weeks % weight change,"[5]; Wegovy Study 1, baseline mean body weight 105.4 kg",−6%
same,36 weeks % weight change,[5]; Wegovy Study 1,−12%
same,12 weeks % weight change,"[5]; Wegovy Study 2, baseline mean body weight 99.9 kg",−4.5%
same,36 weeks % weight change,[5]; Wegovy Study 2,−9%
same,12 weeks % weight change,"[5]; Wegovy Study 3, baseline mean body weight 106.9 kg",−7%
same,36 weeks % weight change,[5]; Wegovy Study 3,−13%
same,12 weeks % weight change,"[5]; Wegovy Study 4, baseline mean body weight 107.2 kg",−5.5%
same,36 weeks % weight change,[5]; Wegovy Study 4,−12%
dulaglutide,Side effect(s),[1]; in vivo,constipation
same,average weight lost,[6]; 1.5 mg once weekly with ≥1500 mg/day metformin,6.6 pounds
same,average weight lost,[6]; 3.0 mg once weekly with ≥1500 mg/day metformin,8.4 pounds
same,average weight lost,[6]; 4.5 mg once weekly with ≥1500 mg/day metformin,1.1 pounds
leptin: 167 amino acid hormone (SEQ ID NO:3),lowering of body weight by supplementation,[3]; obese individuals,has not been shown to be effective to lower body weight in obese individuals
"recombinant GDF15: Macrophage inhibitory cytokine 1 (SEQ ID NO:33) (protein, listed as Homo sapiens, Macrophage inhibitory cytokine 1 (MIC1 or GDF15)) MPGQELRTVNGSQMLLVLLVLSWLPHGGALSLAEASRASFPGPSELHSEDSRFRELRKRYEDLLTRLRANQSWEDSNTDLVPAPAVRILTPEVRLGSGGHLHLRISRAALPEGLPEASRLHRALFRLSPTASRSWDVTRPLRRQLSLARPQAPALHLRLSPPPSQSDQLLAESSSARPQLELHLRPQAARGRRRARARNGDHCPLGPGRCCRLHTVRASLEDLGWADWVLSPREVQVTMCIGACPSQFRAANMHAQIKTSLHRLKPDTVPAPCCVPASYNPMVLIQKTDTGVSLQTYDDLLAKDCHCI",body weight,"[2]; exogenous administration, diet-induced obese mice and non-human primates",decreases body weight in diet-induced obese mice and non-human primates
